Test results as given in patent US5192747A, “Anticoagulant peptides” (Merrell Dow Pharmaceuticals Inc., priority 1991, dated 1993).
Starred links: 1 amine or outer side, 2 acyl side, 3 side chain; linkers in the order of their positions; H or OH if unused. Non-standard residues stand in square brackets, D forms with d. Residues, ends and D or L forms follow the SMILES beside them. Cha = N[C@@H](CC1CCCCC1)C(=O)O; Suc = O=C(CCC(=O)[*:2])[*:1]

Biological target: Bovine thrombin (Bos taurus, UniProt P00735)
Experiment: thrombin induced fibrin clot inhibition assay
Type: biochemical
Experimental: Samples were tested in a thrombin induced fibrin clot inhibition assay. All the solutions of the assay were made with an assay buffer containing 0.12M sodium chloride, 0.01M sodium phosphate, 0.01% sodium azide and 0.1% bovine serum albumin, pH 7.4. […] This solution of thrombin (50 ul; 0.2 pmol) was added to the wells of a microtiter plate containing 50 ul of a solution of the synthetic peptide being tested. […] The turbidity of the solution was monitored by the autoreader at 5 min intervals. […] This is equivalent to a twofold increase in fibrin clot formation time. For the assays using human thrombin,, it and bovine thrombin were titrated to concentrations which gave the fibrin clot at the same rate over a 30 min period.

Row | Compound | IC50 [µM]
1 | CC[C@H](C)[C@H](NC(=O)[C@@H]1CCCN1C(=O)[C@H](CCC(=O)O)NC(=O)[C@H](Cc1ccc(O)cc1)NC(=O)CCC(=O)O)C(=O)N1CCC[C@H]1C(=O)N[C@@H](CCC(=O)O)C(=O)N[C@@H](CCC(=O)O)C(=O)N[C@@H](C)C(=O)N[C@@H](CC1CCCCC1)C(=O)O [compound 18, Suc--Tyr--Glu--Pro--Ile--Pro--Glu--Glu--Ala--Cha--OH] | < 25
2 | CC[C@H](C)[C@H](NC(=O)[C@@H]1CCCN1C(=O)[C@H](CCC(=O)O)NC(=O)[C@H](Cc1ccc(O)cc1)NC(=O)CCC(=O)O)C(=O)N1CCC[C@H]1C(=O)N[C@@H](CCC(=O)O)C(=O)N[C@@H](CCC(=O)O)C(=O)N[C@@H](CC1CCCCC1)C(=O)N[C@@H](CCC(N)=O)C(N)=O [compound 5, Suc--Tyr--Glu--Pro--Ile-- Pro--Glu--Glu--Cha--Gln--NH2] (Suc-YEPIPEE[Cha]Q-NH2) | < 25
3 | CC[C@H](C)[C@H](NC(=O)[C@@H]1CCCN1C(=O)[C@H](CCC(=O)O)NC(=O)[C@H](Cc1ccc(O)cc1)NC(=O)CCC(=O)O)C(=O)N1CCC[C@H]1C(=O)N[C@@H](CCC(=O)O)C(=O)N[C@@H](CCC(=O)O)C(=O)N[C@@H](CC1CCCCC1)C(=O)N[C@H](CCC(=O)O)C(=O)O [compound 15, Suc--Tyr--Glu--Pro--Ile--Pro--Glu--Glu--Cha--D-Glu--OH] | < 25
